Source: the supplement of paper PMC10307832

Columns and labels:
Assay in all cases: relative viability (nuclei count vs DMSO), 5 days (fraction); higher = more cells survive
Bemcentinib + Crizotinib = compound: Nc1nc(Nc2ccc3c(c2)CC[C@@H](N2CCCC2)CC3)nn1-c1cc2c(nn1)-c1ccccc1CCC2 [Bemcentinib] + C[C@@H](Oc1cc(-c2cnn(C3CCNCC3)c2)cnc1N)c1c(Cl)ccc(F)c1Cl [Crizotinib] (partner 1 µM)
How it was run: (§1)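 Lung cancer cell lines were pin-tool dosed in 1536-well plates on the day after seeding, with either a lone drug or a fixed anchor-drug dose plus five library-drug doses (not always all listed) in √10 steps. Nuclei were counted on 4× images after 5 days. Relative viability is the ratio of treated-well to vehicle-well nuclei counts, with each value a median of duplicate plates.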

Axitinib + Phenformin = compound: CNC(=O)c1ccccc1Sc1ccc2c(/C=C/c3ccccn3)n[nH]c2c1 [Axitinib] + N=C(N)NC(=N)NCCc1ccccc1 [Phenformin] (partner 250 µM)
How it was run: as §1

Axitinib + Olaparib = compound: CNC(=O)c1ccccc1Sc1ccc2c(/C=C/c3ccccn3)n[nH]c2c1 [Axitinib] + O=C(c1cc(Cc2n[nH]c(=O)c3ccccc23)ccc1F)N1CCN(C(=O)C2CC2)CC1 [Olaparib] (partner 8 µM)
How it was run: as §1

[1] = compound: CC1=CC=C(C=C1)C(=O)CN2C3=C(CCCC3)SC2=N [Pifithrin_alpha] + CS(=O)(=O)N1CCN(Cc2cc3nc(-c4cccc5[nH]ncc45)nc(N4CCOCC4)c3s2)CC1 [Pictilisib] (partner 1 µM)
How it was run: as §1

Cell Line	relative viability (Bemcentinib + Crizotinib; first compound 0.04 µM)	relative viability (Bemcentinib + Crizotinib; first compound 0.1265 µM)	relative viability (Bemcentinib + Crizotinib; first compound 0.4 µM)	relative viability (Bemcentinib + Crizotinib; first compound 1.265 µM)	relative viability (Bemcentinib + Crizotinib; first compound 4 µM)	relative viability (Axitinib + Phenformin; first compound 0.005 µM)	relative viability (Axitinib + Phenformin; first compound 0.01581 µM)	relative viability (Axitinib + Phenformin; first compound 0.05 µM)	relative viability (Axitinib + Phenformin; first compound 0.1581 µM)	relative viability (Axitinib + Phenformin; first compound 0.5 µM)	relative viability (Axitinib + Olaparib; first compound 0.005 µM)	relative viability (Axitinib + Olaparib; first compound 0.01581 µM)	relative viability (Axitinib + Olaparib; first compound 0.05 µM)	relative viability (Axitinib + Olaparib; first compound 0.1581 µM)	relative viability (Axitinib + Olaparib; first compound 0.5 µM)	relative viability ([1]; first compound 1 µM)	relative viability ([1]; first compound 3.162 µM)	relative viability ([1]; first compound 10 µM)	relative viability ([1]; first compound 31.62 µM)	relative viability ([1]; first compound 100 µM)
LOU-NH91	0.717	0.726	0.732	0.753	0.756	0.763	0.523	0.875	0.684	0.695	0.942	0.745	0.951	0.893	0.934	0.473	0.476	0.444	0.442	0.371
LU99A	0.549	0.629	0.542	0.574	0.532	0.784	0.823	0.981	0.88	0.91	0.272	0.287	0.273	0.286	0.304	0.35	0.311	0.325		0.305
LXF-289	0.88	0.833	0.817	0.791	0.877	0.534	0.518	0.526	0.508	0.516	1.11	1.03	1.05	0.982	1	0.818	0.694	0.726	0.498	0.687
NCI-H23	0.493	0.608	0.522	0.613	0.482	0.577	0.842	0.857	0.708	0.847	0.284	0.331	0.334	0.285	0.312	0.491	0.459	0.491	0.343	0.365
NCI-H322M	1.02	0.971	0.944	1.05	1.09	0.886	0.754	0.812	0.712	0.989	0.965	0.849	0.753	0.724	1.06	0.54	0.45	0.503	0.44	0.428
NCI-H358	0.587	0.506	0.511	0.54	0.53	0.344	0.32	0.332	0.309	0.388	0.741	0.567	0.6	0.594	0.682	0.276	0.346	0.368	0.333	0.317
NCI-H441	0.66	0.704	0.757	0.665	0.779	0.929	0.803	0.882	0.76	0.834	0.675	0.499	0.539	0.503	0.453	0.552	0.582	0.624	0.436	0.438
NCI-H460	0.976	0.994	0.937	1.04	0.964	0.553	0.515	0.583	0.518	0.678	0.411	0.402	0.514	0.379	0.498	0.317	0.353	0.31		0.371
NCI-H520	0.53	0.823	0.912	0.971	0.686	0.489	0.404	0.655	0.362	0.386	0.342	0.345	0.361	0.251	0.368	0.27	0.311	0.301	0.269	0.285
NCI-H596	0.969	1.01	1.08	1.1	1.05	0.735	0.784	0.841	0.746	0.638	0.739	0.663	0.739	0.719	0.705	0.354	0.349	0.379	0.342	0.392
NCI-H647	1.13	1.39	1.1	1.12	1.21	0.663	0.498	0.558	0.504	0.893	0.581	0.527	0.708	0.622	0.644		0.413	0.37	0.226	0.341
NCI-H661	0.878	0.947	0.852	0.998	1.02	0.281	0.29	0.271	0.267	0.285	0.724	0.753	0.741	0.698	0.834	0.322	0.391	0.359	0.472	0.333
NCI-H727	0.666	1.08	0.743	0.801	0.817	0.7	0.519	0.589	0.536	0.728	0.59	0.756	0.759	0.665	0.652	0.347	0.466	0.369	0.316	0.227
NCI-H838	0.805	0.958	0.906	0.893	0.869	0.697	0.509	0.763	0.564	0.654	0.869	0.712	0.806	0.756	0.783	0.343	0.357	0.399	0.293	0.314
NCI-H1355	1.08	1.18	1.07	1.14	1.17	0.457	0.46	0.497	0.44	0.43	0.756	0.769	0.729	0.723	0.77	0.195	0.363	0.311	0.257	0.337
NCI-H1437	0.931	1.04	0.972	0.984	0.967	0.335	0.314	0.357	0.277	0.299	0.677	0.623	0.62	0.611	0.629	0.371	0.406	0.44	0.249	0.222
